# From patent publication US6559101B2, “N- (5, 7-dimethoxy [1, 2, 4] triazolo [1, 5-a] pyrimidin-2-yl) arylsulfonamide compounds and their use as herbicides” (Dow AgroSciences LLC, priority 2000, dated 2003)
# Assays:
# Assay type in all cases: in vivo
# [1] = system: pigweed (Amaranthus retroflexus); assay: Preemergence herbicidal activity; conditions: scored after 3 weeks, 0 no injury, 100 complete kill or no germination
# Experimental: (§1) The soil matrix was contained in plastic pots with a surface area of 161 square centimeters. When required to ensure good germination and healthy plants, a fungicide treatment and/or other chemical or physical treatment was applied. A weighed amount, determined by the highest rate to be tested, of each test compound was placed in a 20 mL glass vial and was dissolved in 8 mL of a 97:3 v/v (volume/volume) mixture of acetone and dimethyl sulfoxide to obtain concentrated stock solutions. […] The stock solutions obtained were diluted with a 99.9:0.1 mixture of water and Tween® 155 surfactant (ethoxylated sorbitan fatty acid ester) to obtain application solutions of known concentration. The solutions containing the highest concentration to be tested were prepared by diluting 4 mL aliquots of the stock solution with 8.5 mL of the mixture and lower concentrations were prepared by dilution of appropriate smaller portions of the stock solution. A 2.5 mL aliquot of each solution of known concentration was sprayed evenly onto the soil of each seeded pot using a Cornwall 5.0 mL glass syringe fitted with a TeeJet TN-3 hollow cone nozzle to obtain thorough coverage of the soil in each pot. Control pots were sprayed in the same manner with the aqueous mixture. A highest application rate of 4.48 kg/ha is achieved when 50 mg of test compound is employed. The treated pots and control pots were placed in a greenhouse with an approximately 15 hr photoperiod which was maintained at about 23-29° C. during the day and 22-28° C. during the night. Nutrients and water were added on a regular basis and supplemental lighting was provided with overhead metal halide 1000 Watt lamps as necessary. The water was added by top-irrigation. After 3 weeks the condition of the test plants that germinated and grew as compared with that of the untreated plants that germinated and grew was determined visually and scored on a scale of 0 to 100 percent where 0 corresponds to no injury and 100 corresponds to complete kill or no germination.
# [2] = system: cocklebur (Xanthium strumarium); assay: Preemergence herbicidal activity; conditions: scored after 3 weeks, 0 no injury, 100 complete kill or no germination
# Experimental: as §1
# [3] = system: wild poinsettia (Euphorbia heterophylla); assay: Preemergence herbicidal activity; conditions: scored after 3 weeks, 0 no injury, 100 complete kill or no germination
# Experimental: as §1
# [4] = system: blackgrass (Alopecurus myosuroides); assay: Preemergence herbicidal activity; conditions: scored after 3 weeks, 0 no injury, 100 complete kill or no germination
# Experimental: as §1
# [5] = system: velvetleaf (Abutilion theophrasti); assay: Preemergence herbicidal activity; conditions: scored after 3 weeks, 0 no injury, 100 complete kill or no germination
# Experimental: as §1
# [6] = system: barnyardgrass (Echinochloa crus-galli); assay: Preemergence herbicidal activity; conditions: scored after 3 weeks, 0 no injury, 100 complete kill or no germination
# Experimental: as §1
# [7] = system: giant foxtail (Setaria faberi); assay: Preemergence herbicidal activity; conditions: scored after 3 weeks, 0 no injury, 100 complete kill or no germination
# Experimental: as §1
# [8] = system: Rox orange sorghum (Sorghum bicolor); assay: Preemergence herbicidal activity; conditions: scored after 3 weeks, 0 no injury, 100 complete kill or no germination
# Experimental: as §1
# [9] = system: morningglory (Ipomoea hederacea); assay: Preemergence herbicidal activity; conditions: scored after 3 weeks, 0 no injury, 100 complete kill or no germination
# Experimental: as §1
# wild oats (Avena fatua) [10] = assay: Preemergence herbicidal activity; conditions: scored after 3 weeks, 0 no injury, 100 complete kill or no germination
# Experimental: as §1
# [11] = system: crabgrass (Digitaria sanguinalis); assay: Preemergence herbicidal activity; conditions: scored after 3 weeks, 0 no injury, 100 complete kill or no germination
# Experimental: as §1
# [12] = system: lambsquarters (Chenopodium album); assay: Preemergence herbicidal activity; conditions: scored after 3 weeks, 0 no injury, 100 complete kill or no germination
# Experimental: as §1
# viola (Viola tricolor) = assay: Postemergence herbicidal activity; conditions: scored after 2 weeks, 0 no injury, 100 complete kill
# Experimental: (§2) Seeds of the desired test plant species were planted in Grace-Sierra MetroMix® 306 planting mixture, which typically has a pH of 6.0 to 6.8 and an organic matter content of about 30 percent, in plastic pots with a surface area of 64 square centimeters. When required to ensure good germination and healthy plants, a fungicide treatment and/or other chemical or physical treatment was applied. The plants were grown for 7-21 days in a greenhouse with an approximately 15 hr photoperiod which was maintained at about 23-29° C. during the day and 22-28° C. during the night. Nutrients and water were added on a regular basis and supplemental lighting was provided with overhead metal halide 1000 Watt lamps as necessary. The plants were employed for testing when they reached the first or second true leaf stage. A weighed amount of each test compound, determined by the highest rate to be tested, was placed in a 20 mL glass vial and was dissolved in 4 mL of a 97:3 v/v (volume/volume) mixture of acetone and dimethyl sulfoxide to obtain concentrated stock solutions. […] The concentrated stock solutions obtained were diluted with an aqueous mixture containing acetone, water, iso-propyl alcohol, dimethyl sulfoxide, Atplus 411F crop oil concentrate, and Triton X-155 surfactant (methylenebisdiamyl phenoxy polyethoxy ethanol) in a 48.5:39:10:1.5:1.0:0.02 v/v ratio to obtain spray solutions of known concentration. The solutions containing the highest concentration to be tested were prepared by diluting 2 mL aliquots of the stock solution with 13 mL of the mixture and lower concentrations were prepared by dilution of appropriate smaller portions of the stock solution. Approximately 1.5 mL aliquots of each solution of known concentration were sprayed evenly onto each of the test plant pots using a Devilbiss atomizer driven by compressed air pressure of 2 to 4 psi (140 to 280 kiloPascals) to obtain thorough coverage of each plant. Control plants were sprayed in the same manner with the aqueous mixture. In this test an application rate of 1 ppm results in the application of approximately 1 g/ha. The treated plants and control plants were placed in a greenhouse as described above and watered by sub-irrigation to prevent wash-off of the test compounds. After 2 weeks the condition of the test plants as compared with that of the untreated plants was determined visually and scored on a scale of 0 to 100 percent where 0 corresponds to no injury and 100 corresponds to complete kill.
# [13] = system: pigweed (Amaranthus retroflexus); assay: Postemergence herbicidal activity; conditions: scored after 2 weeks, 0 no injury, 100 complete kill
# Experimental: as §2
# [14] = system: cocklebur (Xanthium strumarium); assay: Postemergence herbicidal activity; conditions: scored after 2 weeks, 0 no injury, 100 complete kill
# Experimental: as §2
# [15] = system: blackgrass (Alopecurus myosuroides); assay: Postemergence herbicidal activity; conditions: scored after 2 weeks, 0 no injury, 100 complete kill
# Experimental: as §2
# [16] = system: velvetleaf (Abutilion theophrasti); assay: Postemergence herbicidal activity; conditions: scored after 2 weeks, 0 no injury, 100 complete kill
# Experimental: as §2
# [17] = system: giant foxtail (Setaria faberi); assay: Postemergence herbicidal activity; conditions: scored after 2 weeks, 0 no injury, 100 complete kill
# Experimental: as §2
# [18] = system: Rox orange sorghum (Sorghum bicolor); assay: Postemergence herbicidal activity; conditions: scored after 2 weeks, 0 no injury, 100 complete kill
# Experimental: as §2
# [19] = system: morningglory (Ipomoea hederacea); assay: Postemergence herbicidal activity; conditions: scored after 2 weeks, 0 no injury, 100 complete kill
# Experimental: as §2
# wild oats (Avena fatua) [20] = assay: Postemergence herbicidal activity; conditions: scored after 2 weeks, 0 no injury, 100 complete kill
# Experimental: as §2
# [21] = system: chickweed (Stellaria media); assay: Postemergence herbicidal activity; conditions: scored after 2 weeks, 0 no injury, 100 complete kill
# Experimental: as §2
# [22] = system: lambsquarters (Chenopodium album); assay: Postemergence herbicidal activity; conditions: scored after 2 weeks, 0 no injury, 100 complete kill
# Experimental: as §2
# [23] = system: wild buckwheat (Polygonum convolvulus); assay: Postemergence herbicidal activity; conditions: scored after 2 weeks, 0 no injury, 100 complete kill
# Experimental: as §2
compound,measurement,setting,value
COc1cc(OC)n2nc(NS(=O)(=O)c3c(C(F)(F)C(F)(F)F)ccnc3OC)nc2n1 [Compound 18],Preemergence herbicidal activity AMARE,[1]; 35 g/Ha,100%
same,Preemergence herbicidal activity XANST,[2]; 35 g/Ha,70%
same,Preemergence herbicidal activity EPHHL,[3]; 35 g/Ha,70%
same,Preemergence herbicidal activity ALOMY,[4]; 35 g/Ha,100%
same,Preemergence herbicidal activity ABUTH,[5]; 35 g/Ha,95%
same,Preemergence herbicidal activity ECHCG,[6]; 35 g/Ha,90%
same,Preemergence herbicidal activity SETFA,[7]; 35 g/Ha,100%
same,Preemergence herbicidal activity SORBI,[8]; 35 g/Ha,100%
same,Preemergence herbicidal activity IPOHE,[9]; 35 g/Ha,90%
same,Preemergence herbicidal activity AVEFA,wild oats (Avena fatua) [10]; 35 g/Ha,70%
same,Preemergence herbicidal activity DIGSA,[11]; 35 g/Ha,100%
same,Preemergence herbicidal activity CHEAL,[12]; 35 g/Ha,100%
same,Postemergence herbicidal activity VIOTR,viola (Viola tricolor); 31.3 ppm,80%
same,Postemergence herbicidal activity AMARE,[13]; 31.3 ppm,100%
same,Postemergence herbicidal activity XANST,[14]; 31.3 ppm,85%
same,Postemergence herbicidal activity ALOMY,[15]; 31.3 ppm,65%
same,Postemergence herbicidal activity ABUTH,[16]; 31.3 ppm,90%
same,Postemergence herbicidal activity SETFA,[17]; 31.3 ppm,85%
same,Postemergence herbicidal activity SORBI,[18]; 31.3 ppm,90%
same,Postemergence herbicidal activity IPOHE,[19]; 31.3 ppm,70%
same,Postemergence herbicidal activity AVEFA,wild oats (Avena fatua) [20]; 31.3 ppm,50%
same,Postemergence herbicidal activity STEME,[21]; 31.3 ppm,100%
same,Postemergence herbicidal activity CHEAL,[22]; 31.3 ppm,95%
same,Postemergence herbicidal activity POLCO,[23]; 31.3 ppm,60%
CCOc1nccc(C(F)(F)F)c1S(=O)(=O)Nc1nc2nc(OC)cc(OC)n2n1 [Compound 19],Preemergence herbicidal activity AMARE,[1]; 35 g/Ha,100%
same,Preemergence herbicidal activity XANST,[2]; 35 g/Ha,85%
same,Preemergence herbicidal activity EPHHL,[3]; 35 g/Ha,50%
same,Preemergence herbicidal activity ALOMY,[4]; 35 g/Ha,100%
same,Preemergence herbicidal activity ABUTH,[5]; 35 g/Ha,80%
same,Preemergence herbicidal activity ECHCG,[6]; 35 g/Ha,70%
same,Preemergence herbicidal activity SETFA,[7]; 35 g/Ha,30%
same,Preemergence herbicidal activity SORBI,[8]; 35 g/Ha,60%
same,Preemergence herbicidal activity IPOHE,[9]; 35 g/Ha,50%
same,Preemergence herbicidal activity AVEFA,wild oats (Avena fatua) [10]; 35 g/Ha,60%
same,Preemergence herbicidal activity DIGSA,[11]; 35 g/Ha,80%
same,Preemergence herbicidal activity CHEAL,[12]; 35 g/Ha,100%
same,Postemergence herbicidal activity VIOTR,viola (Viola tricolor); 15.6 ppm,90%
same,Postemergence herbicidal activity AMARE,[13]; 15.6 ppm,90%
same,Postemergence herbicidal activity XANST,[14]; 15.6 ppm,90%
same,Postemergence herbicidal activity ALOMY,[15]; 15.6 ppm,80%
same,Postemergence herbicidal activity ABUTH,[16]; 15.6 ppm,75%
same,Postemergence herbicidal activity SETFA,[17]; 15.6 ppm,60%
same,Postemergence herbicidal activity SORBI,[18]; 15.6 ppm,50%
same,Postemergence herbicidal activity IPOHE,[19]; 15.6 ppm,75%
same,Postemergence herbicidal activity AVEFA,wild oats (Avena fatua) [20]; 15.6 ppm,50%
same,Postemergence herbicidal activity STEME,[21]; 15.6 ppm,95%
same,Postemergence herbicidal activity CHEAL,[22]; 15.6 ppm,95%
same,Postemergence herbicidal activity POLCO,[23]; 15.6 ppm,90%
CCc1ccc(OC)c(S(=O)(=O)Nc2nc3nc(OC)cc(OC)n3n2)c1 [Compound 9],Preemergence herbicidal activity AMARE,[1]; 70 g/Ha,40%
same,Preemergence herbicidal activity XANST,[2]; 70 g/Ha,0%
same,Preemergence herbicidal activity EPHHL,[3]; 70 g/Ha,0%
same,Preemergence herbicidal activity ALOMY,[4]; 70 g/Ha,0%
same,Preemergence herbicidal activity ABUTH,[5]; 70 g/Ha,20%
same,Preemergence herbicidal activity ECHCG,[6]; 70 g/Ha,0%
same,Preemergence herbicidal activity SETFA,[7]; 70 g/Ha,20%
same,Preemergence herbicidal activity SORBI,[8]; 70 g/Ha,0%
same,Preemergence herbicidal activity IPOHE,[9]; 70 g/Ha,30%
same,Preemergence herbicidal activity AVEFA,wild oats (Avena fatua) [10]; 70 g/Ha,0%
same,Preemergence herbicidal activity DIGSA,[11]; 70 g/Ha,0%
same,Preemergence herbicidal activity CHEAL,[12]; 70 g/Ha,30%
same,Postemergence herbicidal activity VIOTR,viola (Viola tricolor); 62.5 ppm,50%
same,Postemergence herbicidal activity AMARE,[13]; 62.5 ppm,70%
same,Postemergence herbicidal activity XANST,[14]; 62.5 ppm,70%
same,Postemergence herbicidal activity ABUTH,[16]; 62.5 ppm,30%
same,Postemergence herbicidal activity SETFA,[17]; 62.5 ppm,30%
same,Postemergence herbicidal activity SORBI,[18]; 62.5 ppm,30%
same,Postemergence herbicidal activity IPOHE,[19]; 62.5 ppm,10%
same,Postemergence herbicidal activity AVEFA,wild oats (Avena fatua) [20]; 62.5 ppm,20%
same,Postemergence herbicidal activity STEME,[21]; 62.5 ppm,50%
same,Postemergence herbicidal activity CHEAL,[22]; 62.5 ppm,80%
same,Postemergence herbicidal activity POLCO,[23]; 62.5 ppm,50%
